In PMC3458928, “Co-Factor Binding Confers Substrate Specificity to Xylose Reductase from Debaryomyces hansenii” (PLoS ONE, 2012):
Several values for one entry are separate records, joined by “and”; a condition that tells them apart may be missing. Equal entries are not always repeated. Where two headings read alike, the source gives them in different places. One block for each molecule: values may come before it.

Tests used:
[1] = molecular target: apo-DhXR (wild type xylose reductase) (Debaryomyces hansenii, UniProt Q6BLI9); assay: Tryptophan fluorescence quenching titration, ligand binding to apo-DhXR wild type; settings: for Kd: 25 °C
Protocol: (§1) Titrations of DhXR with ligands were examined by monitoring the intrinsic tryptophan fluorescence of DhXR using a Varian spectrofluorometer. Experiments were performed in indicated buffers as mentioned in the text. The excitation wavelength and emission wavelengths for monitoring DhXR-ligand interaction were 292 nm and 345 nm respectively. Slit widths were set to 5 nm for all experiments and PMT voltage was adjusted to get maximum signal for a given protein concentration. All experiments were done at 25.0±1°C. Initial readings of both the protein, Fprotein,0 and buffer, Fbuff,0 were taken, with F0 = Fprotein,0–Fbuff,0 defined as the initial fluorescence of the sample. The sample cuvette was then titrated with aliquots of ligands and mixed, and equilibrated for 3–4 minutes before measurement. Data points from five such measurements were averaged to obtain Fave,i. The relative fluorescence quenching upon sugar binding is defined as Qobs,i = (F0–Fave,i)/F0. All measurements were corrected for dilution, and inner filter effects.
(§2) Binding of ligands to DhXR was analyzed using two site binding model. [drawing 1] (1) where Q1 and Q2 are the fluorescence quenching corresponding to one and two ligands bound, respectively; L is concentration of free ligand in solution; K1,obs and K2,obs are association constants for the binding of the first and the second ligand molecule. Errors were calculated from fitting analysis of two independent experiments.
We examined the binding of D-xylose, xylitol, and NADPH to apo-DhXR. Quenching of tryptophan fluorescence upon ligand binding was used as the signal for monitoring the extent of binding. Apo-DhXR was excited at 292 nm and emission of tryptophan fluorescence was scanned between 300–375 nm (Fig. S2). […] Intrinsic site-specific binding constants are estimated from the macroscopic binding constants obtained from fitting by removing the statistical factors as in eq (2). [drawing 2] (2)

DhXR H109A mutant = DhXR H109A mutant (Debaryomyces hansenii, UniProt Q6BLI9, H109A); assay: biochemical; assay type: binding
Protocol: as §1, §2
(§3) We tested the activity of all mutants and activities were normalized to the activity of wild type DhXR with respect to its D-xylose reducing activity.

DhXR K76A mutant = DhXR K76A mutant (Debaryomyces hansenii, UniProt Q6BLI9, K76A); assay: biochemical; assay type: binding
Protocol: as §1, §2, §3

DhXR Y47A mutant = DhXR Y47A mutant (Debaryomyces hansenii, UniProt Q6BLI9, Y47A); assay: biochemical; assay type: binding
Protocol: as §1, §2, §3

holo-DhXR [2] = molecular target: T1, holo-DhXR (Debaryomyces hansenii, UniProt Q6BLI9); assay: Steady state kinetics of carbonyl substrate reduction by holo-DhXR (A340, NADPH); assay type: biochemical; settings: for Km/Kd ratio (net affinity loss): Km of holoenzyme vs Kd of apoenzyme
Protocol: (§4) The xylose reductase activities of recombinant DhXR was determined spectrophotometrically by monitoring the change in A340 upon reduction of NADPH to NADP. The standard assay mixture contained 50 mM KPO4, pH 7.0, 100 mM sugar substrate, 0.3 mM NADPH, 0.18 µM of enzyme. Single point activity studies were performed at 40°C and all reactions were started by the addition of enzyme to a final volume of 0.8 ml (in standard assay condition). […] Errors for the activity assays were calculated from triplicate experiments. The kinetic parameters were determined using a range of substrate concentrations. Here, the reaction was performed at 25°C and assay mixture contained 50 mM KPO4, pH 7.0, 0.15 mM NADPH, 0.18 µM of enzyme and varying substrate concentrations. Steady state kinetics data were fit to Michaelis-Menten model, v = Vmax * [S]/([S]+Km), where Vmax, maximal velocity; Km, Michaelis-Menten constant; S, substrate concentration, and v, initial velocity.
To understand the specificity determining component in catalysis, we studied the steady state kinetics of holo-DhXR towards different carbonyl substrates. […] Therefore, all kinetic data analyzed fitting to Michaelis-Menten model by Non-Linear Least Squares method. (Fig. 4A). Steady state kinetic parameters are also determined for other sugars (table 3, Fig. 4B). […] We compared the Km/Kd ratio as an indicator of net affinity loss for a given substrate (Fig. S5).
In order to further verify that holoenzyme discriminates between substrate and non-substrate sugars, we challenged the catalysis of D-xylose by adding non-substrate sugars during kinetic experiments. […] We studied the kinetics of D-xylose reduction by holo-DhXR in the presence of fixed concentration (∼40 mM) of three sugars (Fig. 4C).

holo-DhXR [3] = molecular target: T1, holo-DhXR; assay: Specific activity of DhXR with 100 mM D-xylose in presence of competing sugars; assay type: biochemical
Protocol: as §4
(§5) Assays were performed at 100 mM D-xylose and concentrations of competing sugars were varied (25 mM to 400 mM). […] Both DhXR and NADPH (20.0 µM) are pre-incubated and fluorescence signal was monitored until no further change. […] It should be noted that D-xylose is the substrate and is very likely to be reduced soon after binding.

DhXR D10A mutant = molecular target: T2, DhXR D10A mutant (Debaryomyces hansenii, UniProt Q6BLI9, D10A); assay: Fluorescence quenching titration, ligand binding to DhXR D10A mutant
T2 sequence (Q6BLI9 1-317 D10A): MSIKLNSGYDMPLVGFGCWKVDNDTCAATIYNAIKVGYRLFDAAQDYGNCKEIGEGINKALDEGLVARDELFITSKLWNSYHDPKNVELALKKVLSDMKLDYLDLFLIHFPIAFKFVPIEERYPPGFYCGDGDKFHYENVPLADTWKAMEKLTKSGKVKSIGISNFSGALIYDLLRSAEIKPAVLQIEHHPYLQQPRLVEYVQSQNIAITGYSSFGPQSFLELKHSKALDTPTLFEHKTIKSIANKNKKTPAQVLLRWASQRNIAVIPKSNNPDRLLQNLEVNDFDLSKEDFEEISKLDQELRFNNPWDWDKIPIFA
Protocol: as §1, §2, §3

DhXR D42A mutant = molecular target: T3, DhXR D42A mutant (Debaryomyces hansenii, UniProt Q6BLI9, D42A); assay: Fluorescence quenching titration, ligand binding to DhXR D42A mutant
T3 sequence (Q6BLI9 1-317 D42A): T2 sequence (Q6BLI9 1-317 D10A)
Protocol: as §1, §2, §3

DhXR N305A mutant = molecular target: T4, DhXR N305A mutant (Debaryomyces hansenii, UniProt Q6BLI9, N305A); assay: Fluorescence quenching titration, ligand binding to DhXR N305A mutant
T4 sequence (Q6BLI9 1-317 N305A): T2 sequence (Q6BLI9 1-317 D10A)
Protocol: as §1, §2, §3

DhXR-NADPH complex = assay: Fluorescence titration of pre-formed DhXR-NADPH binary complex; assay type: binding, Debaryomyces hansenii; settings: DhXR pre-incubated with 20.0 µM NADPH
Protocol: as §1, §5

holo-DhXR [4] = molecular target: T1, holo-DhXR; assay: Single point specific activity of holo-DhXR towards different sugars; assay type: biochemical; settings: saturated sugar concentration (100 mM), 40 °C
Protocol: as §4

[5] = substrate: O=C[C@H](O)[C@@H](O)[C@H](O)CO; assay: Steady state kinetics of carbonyl substrate reduction by holo-DhXR (A340, NADPH); assay type: biochemical, Debaryomyces hansenii; settings: other: 25 °C, pH 7.0, 0.15 mM NADPH, 0.18 µM enzyme
[6] = Kd1,int, wild type apo-DhXR, first site
[7] = read-out: Kd2,int, wild type apo-DhXR, second site
[8] = 25 °C, pH 7.0, 0.15 mM NADPH, 0.18 µM enzyme
[9] = 25 mM sugar added in 100 mM D-xylose reaction
[10] = 100 mM sugar added in 100 mM D-xylose reaction
[11] = 400 mM sugar added in 100 mM D-xylose reaction
[12] = wild type apo-DhXR, first site, read-out: Kd1,int

Molecule: O=C[C@H](O)[C@H](O)[C@H](O)CO [D-ribose]
Kd [1, 6]: ~10.5 mM and 10.5 mM
fold less affinity than D-xylose ([1]; first site, apo-DhXR): ~2 fold
Kd [1, 7]: 83 ± 7 mM
Kd (DhXR H109A mutant): 13 ± 3 mM
Kd (DhXR K76A mutant): 10 ± 2 mM
reduction in affinity versus wild type (DhXR K76A mutant; K76A): 2 fold
Kd (DhXR Y47A mutant): 12 ± 1 mM
reduction in affinity versus wild type (DhXR Y47A mutant; Y47A, first site): ~2 fold
Vmax (holo-DhXR [2]; [8]): 93.1 ± 3.2 nmol/min
k cat (holo-DhXR [2]; [8]): 10.3 s⁻¹
Km/Kd ratio (net affinity loss) (holo-DhXR [2]): 12–15 fold
Specific activity (holo-DhXR [3]; [9]): 77.5 ± 3.6 nmol/min
Specific activity (holo-DhXR [3]; [10]): 84.7 ± 3.8 nmol/min
Specific activity (holo-DhXR [3]; [11]): 78.5 ± 3.1 nmol/min

Molecule: O=C[C@H](O)[C@@H](O)[C@H](O)CO [D-xylose]
Kd [1, 6]: ~5.3 mM and 5.3 mM
ratio of first to second intrinsic binding constant ([1]; affinity of first vs second ligand molecule): ~4
Hill coefficient, nH ([1]; from logarithmic (Hill) plot): ~0.68
Kd [1, 7]: 17 mM and 17.2 mM
K1,int (intrinsic association constant, first ligand) ([1]; wild type apo-DhXR): 1.9±0.6×10^2 M^−1
K2,int (intrinsic association constant, second ligand) ([1]; wild type apo-DhXR): 5.8±0.1×10^1 M^−1
Kd (DhXR D10A mutant): 6.7 ± 1 mM
Kd (DhXR D42A mutant): 5.1 ± 0.6 mM
Kd (DhXR D42A mutant; read-out: Kd2,int, D42A, second site): 47.6 ± 18 mM
Kd (DhXR H109A mutant): 13.3 ± 2 mM
Kd (DhXR K76A mutant): 12.8 ± 2 mM
Kd (DhXR Y47A mutant): 12.9 ± 2 mM
Kd (DhXR N305A mutant): 6.4 ± 2 mM
Km/Kd ratio (net affinity loss) (holo-DhXR [2]): 12–15 fold
Specific activity (holo-DhXR [3]; 100 mM D-xylose alone, 0 mM competing sugar): 72.5 ± 2.4 nmol/min
binding to DhXR-NADPH complex (fluorescence signal) (DhXR-NADPH complex): showed further quenching of fluorescence

Kd [1, 12]: 14 ± 3 mM
Kd ([1]; wild type apo-DhXR, second site, read-out: Kd2,int): 33 ± 13 mM
catalysis in steady state kinetic curves (in words) (holo-DhXR [2]; comparison of kinetic curves of different sugars): very low activity
Km/Kd ratio (net affinity loss), predicted minimum (holo-DhXR [2]; could not be estimated due to insignificant catalysis, minimum predicted): > 500 fold
reduction of holoenzyme activity compared with D-xylose (holo-DhXR [4]): more than 95%
Specific activity (holo-DhXR [3]; [9]): 76.2 ± 6.4 nmol/min
Specific activity (holo-DhXR [3]; [10]): 73.4 ± 2.8 nmol/min
Specific activity (holo-DhXR [3]; [11]): 68.7 ± 3.4 nmol/min
binding to DhXR-NADPH complex (fluorescence signal) (DhXR-NADPH complex): cannot bind
Molecule: C[C@H](O)[C@H](O)[C@@H](O)[C@@H](O)C=O [L-rhamnose]

Kd [1, 12]: 8.2 ± 1 mM
Molecule: OC[C@@H](O)[C@H](O)[C@@H](O)CO [Xylitol, xylitol]

B1: holo-DhXR (Debaryomyces hansenii CBS767) (protein)
chain: T2 sequence (Q6BLI9 1-317 D10A)
Km [5]: 81 ± 6 mM
Vmax [5]: 0.185 µmol/min
kcat [5]: 20.6 s⁻¹
kcat/Km [5]: 254 M⁻¹ s⁻¹
